The record followed here is patent US7968602B2, “4-[(E)-2-(5,6,7,8-tetrahydro-5,5,8,8-tetramethyl-2-napthalenyl)-1-propenyl]benzoic acid analogs and method of manufacture and use thereof” (Wisconsin Alumni Research Foundation, priority 2005, dated 2011).

One series relates to pregnant rats. Briefly: Assessment of compound teratogenicity. Format: in vivo. The following applies: for teratogenic activity / fetal malformations: 0.66 micomoles/kg single oral bolus at E9.25, fetuses at E21.5. The procedure:
Assessment of Compound Teratogenicity. Female rats (Harlan Sprague-Dawley, Madison, Wis. approximately 200 to 250 g in weight) were maintained on normal laboratory rat chow and mated with normal rats of the same strain. Pregnant rats were given a single oral bolus dose of compound dissolved in Wesson® corn oil. Each dose was 60-100 μL. The doses were given at day 9.25. Each […] was maintained under standard laboratory conditions until euthanasia at embryonic day 21.5. The fetuses were removed. Fetuses with a heartbeat were determined to be alive. The number of live and dead fetuses were recorded. The number of resorption sites was also recorded. The live fetuses were examined for gross external malformations. All animals were maintained in accordance with protocol approved by the University of Wisconsin-Madison animal care committee.

Series [1] deals with DMBA-induced mammary tumors. Briefly: Inhibition of DMBA-induced mammary tumors. The conditions noted are these: studies 'may be performed'. Format: in vivo.
A further series has as its target T1, RXRgamma (Mus musculus, UniProt P28705).
T1 construct: made in house; host or cells: insect cells infected with baculovirus expression vectors; nuclear extracts
T1 sequence (P28705 1-463): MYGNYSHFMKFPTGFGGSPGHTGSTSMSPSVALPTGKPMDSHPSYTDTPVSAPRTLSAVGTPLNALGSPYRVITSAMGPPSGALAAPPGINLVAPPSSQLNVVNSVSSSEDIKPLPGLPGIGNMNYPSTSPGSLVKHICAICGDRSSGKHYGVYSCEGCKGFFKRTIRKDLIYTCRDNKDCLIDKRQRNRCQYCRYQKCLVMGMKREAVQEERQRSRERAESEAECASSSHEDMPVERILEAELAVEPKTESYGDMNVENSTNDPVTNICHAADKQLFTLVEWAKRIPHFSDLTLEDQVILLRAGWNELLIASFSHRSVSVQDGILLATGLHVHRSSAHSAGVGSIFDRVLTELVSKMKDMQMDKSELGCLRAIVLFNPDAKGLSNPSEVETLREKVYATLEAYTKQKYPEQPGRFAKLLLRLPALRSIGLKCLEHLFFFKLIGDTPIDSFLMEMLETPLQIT
Briefly: Nuclear RXR competition binding assay ([3H]-9-cis-RA, hydroxylapatite). The following applies: for competition binding to RXRs: compared with 4-HPTTNPB, studies 'may be performed'. Details: species or system murine. The procedure:
Nuclear Retinoid Receptor (RAR/RXR) Binding. Competition of retinoids with [^3H]-all-trans-RA for binding to RARalpha, RARbeta and RARgamma and with [^3H]-9-cis-RA for binding to RXRgamma was determined using an in vitro ligand binding assay. […] Radiolabeled ligands were added to receptor-containing extracts in the absence and presence of increasing concentrations of competing ligands followed by separating ligand bound to the receptor from that free in solution using a hydroxylapatite (HAP) assay.

For series [2], the system named is MCF-7 cells. As to the kind of experiment: TUNEL assay (DNA fragmentation). The conditions noted are these: for induction of apoptosis / DNA fragmentation: MCF-7 cells, 72 hours, 4-HPTTNPB and 4-HBTTNPB at the highest doses; for activity in DNA fragmentation study: compared with 4-HPTTNPB, studies 'may be performed'. The format is cell-based, human. The method, then: (§1) Cell growth inhibition and TUNEL assays. […] The cells were plated at 50,000 cells/well in 12-well plates. The wells were dosed with varying amounts of retinoid compounds. At cell harvest, propidium iodide was added. Half of the cells were used to determine the number of live and dead cells after adding fluorescein diacetate, which yields a fluorescent product upon cleavage by metabolically active cells. The other half were fixed in 4% paraformaldehyde, dried on aminosilane coated slides and used to determine TUNEL and propidium iodide staining.

Series [3] has as its system T2, RARalpha, RARbeta and RARgamma.
T2 construct: fused on or other part: RARalpha was expressed as a fusion protein in E. coli
Briefly: Nuclear RAR competition binding assay ([3H]-all-trans-RA, hydroxylapatite). Details: species or system human RARalpha and RARgamma, murine RARbeta. The following applies: for competition with [3H]-all-trans-RA for binding to the RARs: RAR types alpha, beta and gamma, stated collectively; for competition binding to RARs: compared with 4-HPTTNPB, studies 'may be performed'. The procedure: Nuclear Retinoid Receptor (RAR/RXR) Binding. Competition of retinoids with [^3H]-all-trans-RA for binding to RARalpha, RARbeta and RARgamma and with [^3H]-9-cis-RA for binding to RXRgamma was determined using an in vitro ligand binding assay. (See Clagett-Dame et al., Methods for generating and characterizing retinoid receptors from E. coli and insect cell expression systems, Meth. Enzymol., 282:13-14 (1997)). Recombinant human RARalpha was expressed as a fusion protein in E. coli (see Repa J J et al., All-trans retinol is a ligand for the retinoic acid receptors, Proc Natl Acad Sci USA, 90:7293-7297 (1993)). […] Radiolabeled ligands were added to receptor-containing extracts in the absence and presence of increasing concentrations of competing ligands followed by separating ligand bound to the receptor from that free in solution using a hydroxylapatite (HAP) assay.

Series [4] relates to MCF-7 cells. As to the kind of experiment: Cell growth inhibition assay. Format: cell-based, human. The following applies: for cell growth inhibition, MCF-7: compared with 4-HPTTNPB, assays 'may be performed'; for response of MCF-7 cells (live cells / cell death): single treatment, 72 hours. The procedure:
as §1
Cell culture. The human mammary carcinoma cell line, MCF-7, may be obtained from the American Type Culture Collection (Mannassas, Va.). MCF-7 cells may be maintained in DMEM (Sigma-Aldrich) medium supplemented with 4 g/L glucose, 3.7 g/L sodium bicarbonate and 10% fetal calf serum.
Assay for cell growth inhibition. Cells are plated in flasks/wells of a tissue culture dish. After 24 hours, cells are dosed with a compound of the present invention at varying concentrations, and after 72 hours, the cells are removed from flasks/plates and counted. Fluorescence (due to staining of cells with fluorescein diacetate) was used to count the number of live cells. Phase-contrast microscopy is used to count the total number of cells.

The test system of series [5] is F9-RARE-lacZ reporter cell line. Briefly: F9 reporter gene assay. The format is cell-based. The conditions noted are these: for potency in activating the reporter system compared with atRA and TTNPB: versus atRA and TTNPB. From the text:
Reporter gene assay. […] Data were normalized for total protein using the method set forth in Bradford M M, Anal Biochem, 72:248-254 (1976).
On the technique in general: In a reporter assay the amount or activity of a reporter protein is the signal.

Setting [6] is: TTNPB: at concentrations above 10^-6 M, 4-HPTTNPB and 4-HPR: at the highest concentration.

Entries after “also recorded” stand apart in the source; their conditions may differ. Some results are limits rather than exact numbers.

Turning to `C/C(=C\c1ccc(C(=O)Cc2ccc(O)cc2)cc1)c1ccc2c(c1)C(C)(C)CCC2(C)C` [4-HBTTNPB, E-4-[2-methyl-2-(1,1,4,4-tetramethyl-1,2,3,4-tetrahydronapth-7-yl)-vinyl]-phenyl-2′-(4′-hydroxyphenyl)-1′-ethanone], in the series with pregnant rats, the “teratogenic activity / fetal malformations” value is “devoid of any observable teratogenic activity”. In the series with pregnant rats ('the data will demonstrate'), the “teratogenic potential / embryotoxicity” value was “little, if any, observable embrotoxicity”. Further, in the series on pregnant rats (rat, in vivo, po), the “number of dead and resorbed fetuses compared with vehicle group” value is reported as “did not differ”. In series [1], the “toxicity in DMBA-induced mammary tumor studies” value is “little, if any, toxicity”. Besides, the “competition binding to RXRs” value on RXRgamma is on record as “only slight binding competition”. In addition, in the series with MCF-7 cells [2], the “induction of apoptosis / DNA fragmentation” value was “very active” and the “activity in DNA fragmentation study” value is recorded as “activity similar to 4-HPTTNPB”. In addition, in series [3], the “competition with [3H]-all-trans-RA for binding to the RARs” value (shortened to “competition with [3H]-all-trans-RA”) is listed as “competed poorly” and the “competition binding to RARs” value is reported as “bind only very weakly”. Moreover, the “cell growth inhibition, MCF-7” value in the series with MCF-7 cells [4] (listed as 23) was “inhibits growth of MCF-7 cells in a dose-dependent manner”. Moreover, the “response of MCF-7 cells (live cells / cell death)” value with MCF-7 cells [4] is listed as “dose-dependent decrease”.

For `CC1=C(/C=C/C(C)=C/C=C/C(C)=C/C(=O)Nc2ccc(O)cc2)C(C)(C)CCC1` [4-HPR, N-(4-hydroxyphenyl) retinamide, reference compound], the “potency in activating the reporter system compared with atRA and TTNPB” value in series [5] is “approximately 1000 fold less potent”. Besides, on RXRgamma (setting [6]), the “competition with [3H]-9-cis-RA for binding to RXRgamma” value (shortened to “competition with [3H]-9-cis-RA”) is “almost no competition”. Also, in the series on MCF-7 cells [2], the “induction of apoptosis / DNA fragmentation” value is reported as “high degree of apoptosis”. In series [3], the “competition with [3H]-all-trans-RA” value is given as “only weak competition”. Further, the “potency of competition for RAR binding compared with TTNPB” value in series [3] (versus TTNPB) is recorded as 3-4 orders of magnitude less potent. Besides, the “response of MCF-7 cells (live cells / cell death)” value in the series on MCF-7 cells [4] is “cell death”.

With `C/C(=C\c1ccc(C(=O)Nc2ccc(O)cc2)cc1)c1ccc2c(c1)C(C)(C)CCC2(C)C` [4-HPTTNPB, E-4-[2-methyl-2-(1,1,4,4-tetramethyl-1,2,3,4-tetrahydronapth-7-yl)-vinyl]-benzoic acid 4-hydroxyanilide], in the series on pregnant rats, the “teratogenic activity / fetal malformations” value was “all profoundly malformed”. For the same molecule, the “percentage of the fetuses at embryonic day 21.5 either dead or resorbed” value in the series on pregnant rats (0.66 micomoles/kg single oral bolus at E9.25, three pregnant rats) is on record as above 80%. Besides, in series [5], the “potency in activating the reporter system compared with atRA and TTNPB” value is recorded as “around 100 fold less potent”. Besides, the “competition with [3H]-9-cis-RA” value at RXRgamma (setting [6]) is reported as “almost no competition”. In addition, the “induction of apoptosis / DNA fragmentation” value with MCF-7 cells [2] is “very active”. Besides, in series [3], the “competition with [3H]-all-trans-RA” value was “competed poorly; also recorded: did not show any significant binding”. Moreover, the “response of MCF-7 cells (live cells / cell death)” value in the series with MCF-7 cells [4] was “dose-dependent decrease”.

On to `CCCc1cc2c(cc1/C(C)=C/c1ccc(C(=O)Nc3ccc(O)cc3)cc1)C(C)(C)CCC2(C)C` [Compound 12, E-4-[2-methyl-2-(6-propyl-1,1,4,4-tetramethyl-1,2,3,4-tetrahydronapth-7-yl)-vinyl]-benzoic acid 4-hydroxyanilide], for which, on RXRgamma, the “competition binding to RXRs” value was “only slight binding competition”. The “competition binding to RARs” value in series [3] is on record as “bind only very weakly”. Besides, the “cell growth inhibition, MCF-7” value with MCF-7 cells [4] is “inhibits growth of MCF-7 cells in a dose-dependent manner”.

For `C/C(=C\c1ccc(C(=O)Cc2ccc(OC3OC(C(=O)O)C(O)C(O)C3O)cc2)cc1)c1ccc2c(c1)C(C)(C)CCC2(C)C` (stereo not shown) [Compound 25], the “teratogenic potential / embryotoxicity” value in the series with pregnant rats ('the data will demonstrate') is “little, if any, observable embrotoxicity”. Besides, the “toxicity in DMBA-induced mammary tumor studies” value in series [1] is on record as “little, if any, toxicity”. In addition, the “competition binding to RXRs” value at RXRgamma was “no better at binding to RXRs than 4-HPTTNPB”. Also, the “activity in DNA fragmentation study” value with MCF-7 cells [2] is reported as “less active than 4-HPTTNPB”. Also, in series [3], the “competition binding to RARs” value is recorded as “only slightly better at binding to RARs than 4-HPTTNPB”. For the same molecule, the “cell growth inhibition, MCF-7” value in the series with MCF-7 cells [4] was “inhibits growth of MCF-7 cells in a dose-dependent manner; also recorded: less active than 4-HPTTNPB”.

In the case of `C/C(=C\c1ccc(C(=O)Cc2ccc(O[C@@H]3O[C@H](CO)[C@@H](O)[C@H](O)[C@H]3O)cc2)cc1)c1ccc2c(c1)C(C)(C)CCC2(C)C` [Compound 33, E-4-[2-methyl-2-(1,1,4,4-tetramethyl-1,2,3,4-tetrahydronaphth-7-yl)-vinyl]-phenyl-2′-(4′-beta-D-glucopyranosyloxyphenyl)-1′-ethanone], the “teratogenic potential / embryotoxicity” value with pregnant rats (rat, in vivo) is “little, if any, observable embrotoxicity”. The “toxicity in DMBA-induced mammary tumor studies” value in series [1] is given as “little, if any, toxicity”. Also, the “competition binding to RXRs” value on RXRgamma is on record as “no better at binding to RXRs than 4-HPTTNPB”. The “competition binding to RARs” value in series [3] is “only slightly better at binding to RARs than 4-HPTTNPB”. Also, the “cell growth inhibition, MCF-7” value in the series with MCF-7 cells [4] is “inhibits growth of MCF-7 cells in a dose-dependent manner”.

Consider `C=C(c1ccc(C(=O)O)cc1)c1cc2c(cc1C)C(C)(C)CCC2(C)C` [LGD1069, reference compound], for which the “competition with [3H]-9-cis-RA” value on RXRgamma (setting [6]) is “very effective”.

Regarding `C/C(=C\c1ccc(C(=O)O)cc1)c1ccc2c(c1)C(C)(C)CCC2(C)C` [TTNPB, E-4-[2-methyl-2-(1,1,4,4-tetramethyl-1,2,3,4-tetrahydronapth-7-yl)-vinyl]-benzoic acid, reference compound], the “activity in the F9 reporter assay (beta-galactosidase)” value in series [5] is listed as “highly active”. Also, the “competition with [3H]-9-cis-RA” value was “very weak competition” at RXRgamma (setting [6]) and 44% at RXRgamma (at 10^-4.5 M). The “induction of apoptosis / DNA fragmentation” value in the series on MCF-7 cells [2] was “ineffective”. Moreover, in series [3], the “competition with [3H]-all-trans-RA” value is recorded as “very effective”. Besides, the “response of MCF-7 cells (live cells / cell death)” value with MCF-7 cells [4] was “nearly ineffective”.

Consider `CC1=C(/C=C/C(C)=C/C=C/C(C)=C/C(=O)O)C(C)(C)CCC1` [atRA, all-trans retinoic acid, reference compound], for which the “activity in the F9 reporter assay (beta-galactosidase)” value in series [5] is “highly active”.
